Assay results from patent publication US20220137028A1, “In Vitro Assays as Indicator of Local Tolerance” (Lonza Ltd, priority 2019, published 2022).

Tests used:
[1] = Tonicity of 10% co-solvent solutions; type: physicochemical; conditions: solutions with 10% co-solvent
[2] = test system: human heparinized whole blood (erythrocytes); experiment: In vitro hemolysis test with co-solvents (study procedure, Drabkin's solution, absorbance 540 nm); conditions: for max. well tolerated co-solvent concent: co-solvent diluted with NaCl 0.9%, intersection of fitted sigmoidal curve with 5% hemolysis line, 10 min at 37° C.; for hemolysis value: human, 10 min, 10 % v/v
Description: A test was developed to determine the hemolytic activity of a pharmaceutical formulation. The test utilized fresh anticoagulated human blood. In general, the test was performed by diluting the pharmaceutical product with fresh saline, then mixing with an aliquot of fresh human whole blood. After incubating at 37° C., the test solutions were centrifuged, and the concentration of hemoglobin was measured in the supernatant using spectroscopic techniques.
To determine the 100% hemolysis value, equal volumes of […] and blood were mixed, centrifuged, and mixed again. 30 μl was transferred to a plate, and 170 μl of Drabkin's reagent was added. The 100% hemolysis value was indicated as Value A.
To determine the 0% hemolysis value, equal volumes of saline and blood were mixed. The 0% hemolysis value is indicated as Value B.
The dilutions were performed in glass or plastic tubes with a diameter of approximately 12 mm and a length of approximately 100 mm.
400 μl of whole blood was added to each tube. The components were carefully homogenized. The tubes were incubated for 10 minutes at 37° C., homogenized again and then centrifuged for 10 minutes at 2500×g. The contents of the tube were mixed for Value A (100% hemolysis) and then transferred 3 times 30 μl of each tube of the supernatant to a 96-well plate (flat bottom) and 170 μl of Drabkin's solution was added to each well containing solution. The plate was read in a plate reader at wavelength 540 nm.
For evaluation of the test results from the plate reader reading at wavelength 540 nm, the mean values of the triplicates were calculated. The percent hemolytic activity was determined according to the following formula:
wherein: % HA=percent hemolytic activity; A=Value for 100% HA; B=Value for 0% HA; C=Value for tested solution.
Dilutions of the co-solvents were prepared in tubes. An equal volume of human heparinized whole blood was added and homogenized. The test co-solvents were diluted in sterile, pyrogen-free water and sterile, pyrogen-free saline.
The following equation was used to obtain a curve fitting of the hemolysis data: […]
The maximal well tolerated co-solvent concentration was obtained by calculating the intersection of the sigmoidal curves with the horizontal line at hemolysis, i.e., 5%.

Row | Compound | tonicity of the solution [1] | flocculation in hemolysis test [2] | hemolysis at the lowest tested co-solvent concentration (in words) [2] | max. well tolerated co-solvent concent [2] | hemolysis value [2] | co-solvent concentration at which significant (>10%) hemolysis is induced [2] | effect of switch from water for injection to saline as diluent on hemolytic behavior [2]
1 | CCO [Ethanol] | clearly hypertonic | significant flocculation | high hemolysis | 29% | ~100% | – | –
2 | CC(O)CO (stereo not drawn) [PG, Propylene glycol] | clearly hypertonic | – | high hemolysis | 48% | ~100% | – | –
3 | Polyethylene glycol 300 [PEG 300] | isotonic | – | – | – | – | 60-70% | did not drastically modify the hemolytic behavior
4 | Polyethylene glycol 400 [PEG 400] | close to isotonicity | – | – | – | – | 50-60% | did not drastically modify the hemolytic behavior
